Laboratory results taken from BindingDB's records for doi:10.7270/Q2NS0SBF (Burnham Center For Chemical Genomics, 2010).

Molecular target: Mu-type opioid receptor (Homo sapiens, UniProt P35372)
Assay: mu opioid receptor activators, image-based, SAR follow-up (AID 2352)

Chain of Mu-type opioid receptor (P35372 whole entry): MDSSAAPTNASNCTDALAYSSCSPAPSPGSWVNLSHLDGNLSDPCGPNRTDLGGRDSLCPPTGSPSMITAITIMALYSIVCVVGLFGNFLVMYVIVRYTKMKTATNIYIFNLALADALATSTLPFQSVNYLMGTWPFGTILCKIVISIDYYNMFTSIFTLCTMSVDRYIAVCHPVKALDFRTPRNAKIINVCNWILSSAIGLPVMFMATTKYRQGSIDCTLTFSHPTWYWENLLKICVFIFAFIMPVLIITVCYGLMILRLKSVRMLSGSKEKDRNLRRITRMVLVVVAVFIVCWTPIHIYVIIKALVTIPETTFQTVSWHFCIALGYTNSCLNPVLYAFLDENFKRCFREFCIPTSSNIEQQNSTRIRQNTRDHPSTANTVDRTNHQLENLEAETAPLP

Row | Structure (SMILES) | EC50 [µM]
1 | CCC(N=Nc1ccnc2cc(Cl)ccc12)c1ccc(O)cc1 (configuration not stated) [4-[1-[2-(7-chloroquinolin-4-yl)hydrazinyl]propylidene]cyclohexa-2,5-dien-1-one] | 25.3
2 | Oc1ccc(CN=Nc2ccnc3cc(Cl)ccc23)cc1O [(4Z)-4-[[2-(7-chloroquinolin-4-yl)hydrazinyl]methylidene]-2-hydroxycyclohexa-2,5-dien-1-one] | > 32
